≈ marks a conversion by molar mass, not a printed value. Where “and” joins values, the source holds several entries; their conditions need not be identical. Equal entries are not always repeated. Entries after “also recorded” stand apart in the source; their conditions may differ. Where two headings read alike, the source gives them in different places. Numbered stars: 1 amine (or outer) side, 2 acyl side, 3 side chain; on linkers, the order of the positions; unused ones are H or OH. Bridge positions count the residues as written; N and C are the ends. Square brackets hold non-standard residues; d marks the D form. Peptide text beside a SMILES is read from it. * marks the point of attachment. pTerphenylCO(4''-OnC5H11) = CCCCCOc1ccc(-c2ccc(-c3ccc(C(=O)*)cc3)cc2)cc1; Orn(4R-OH,5R-OH) = O=C([C@H](C[C@@H](O)[C@@H](O)N[*:3])N[*:1])[*:2]; hTyr(3S-OH,4S-OH) = N[C@H](C(=O)O)[C@H](O)[C@@H](O)c1ccc(O)cc1; Pro(3S-OH,4S-Me) = C[C@H]1CN[C@H](C(=O)O)[C@H]1O; Hyp = O=C(O)[C@@H]1C[C@@H](O)CN1
Assays:
C. glabrata = test: In vitro susceptibility testing (CLSI M27-A3); format: cell-based, Candida glabrata; settings: Nakaseomyces glabratus, 24 h
Experimental: (§1) Strains. Ten clinical Candida strains were used for the in vivo treatment studies, including four C. albicans, three C. glabrata, and three C. parapsilosis strains (Table 18). This group was selected to encompass phenotypic variability in susceptibility to triazoles and echinocandins and based on similar fitness in the animal model as defined by the amount of growth in control animals over 24 h. The organisms were maintained, grown, and quantified on Sabouraud's dextrose agar (SDA) plates.
(§2) In vitro susceptibility testing. All isolates were tested in accordance with the standards in CLSI document M27-A3. The MICs were determined visually after 24 h of incubation as the lowest concentration of drug that causes a significant diminution (≥50%) of growth compared to controls. MICs were determined on three separate occasions in duplicate.

C. parapsilosis = test: In vitro susceptibility testing (CLSI M27-A3); format: cell-based, Candida parapsilosis; settings: Lodderomyces parapsilosis, 24 h
Experimental: as §1, §2

C. albicans = test: In vitro susceptibility testing (CLSI M27-A3); format: cell-based; settings: Candida albicans, 24 h
Experimental: as §1, §2

A. fumigatus AF293 = test: Pulmonary aspergillosis in neutropenic ICR mice (Examples 14, 15), prophylaxis, survival; format: in vivo, Aspergillus fumigatus
Experimental: Pulmonary aspergillosis: ICR mice (10/grp) were made neutropenic by cyclophosphamide on Day −4 (150 mg/kg), and CPM/cortisone on Day −1 (150/175 mg/kg). Intranasal infection with A. fumigatus AF293 (10^5 CFU/mouse) on Day 0. Prophylaxis CD101 as a single dose (IP; 5, 10, 20 mg/kg) or posaconazole (PO; 2 and 10 mg/kg) 1 day prior to infection. Survival monitored for 10 days.
Pulmonary aspergillosis: ICR mice (10/grp) were made neutropenic by cyclophosphamide on Day −4 (150 mg/kg), and cyclophosphamide/cortisone was given on Day −1 (150/175 mg/kg). Intranasal challenge with A. fumigatus AF293 (10^5 CFU/mouse) was initiated on Day 0 and prophylaxis with CD101 as a single dose (IP; 5, 10, 20 mg/kg) or posaconazole (PO; 2 and 10 mg/kg) was started 1 day prior to infection. Survival was monitored for 10 days.

[1] = test system: Aspergillus fumigatus strain AF293; test: Murine model of pulmonary aspergillosis (Example 16), survival and lung burden; format: in vivo; settings: for Group Geometric mean / Log10 Group Geometric mean / Log10 reduction from vehicle control: terminal lung burden
Experimental: Animal strain and housing. Mice used in these studies were supplied by Charles River (Margate UK) and were specific pathogen free. The strain of mice used was ICR (also known as CD1 Mice) which is a well characterized outbred murine strain. Male mice were 11-15 g on receipt and allowed to acclimatize for at least 7 days.
Immunosuppression. Mice were immunosuppressed on Day −4 with 150 mg/kg cyclophosphamide administered intraperitoneally (IP), and on Day −1 with 150 mg/kg cyclophosphamide IP and 175 mg/kg cortisone acetate administered subcutaneously (SC). To prevent bacterial infection due to the immunosuppression mice were given once daily 50 mg/kg ceftazidime.
Preparation of Organism and Infection. A. fumigatus strain AF293 inoculum was prepared from spore cultures grown on Sabouraud Dextrose agar (SAB) containing 50 μg/mL chloramphenicol (SABC) in vented tissue culture flasks. Following incubation for 7-10 days at 30° C., spore cultures were washed in sterile phosphate buffered saline (PBS) containing 0.05% Tween 80. Spore count was determined using a haemocytometer and spores were diluted in PBS to ˜6.9×10^6 CFU/mL. Inoculum concentration was confirmed by quantitative culture onto SABC agar.
Neutropenic mice lungs were infected with 0.04 mL (0.02 mL/nare) of ˜4.17×10^6 CFU/mL (˜1.67×10^5 CFU/mouse) of A. fumigatus AF293 by intranasal (IN) instillation under temporary 2.5% isoflurane induced anesthesia.
Preparation of Test Articles. Micafungin (Mycamine, Astellas) was provided as a 50 mg vial (Lot 02323002, expiry 08/2017) and was prepared as per manufacturer's instructions by adding 5 mL saline for injection (SFI) directly into the vial to make up a 10 mg/mL stock solution. This solution was then diluted further in SFI to a working concentration of 0.5 mg/mL. […] It was prepared fresh once and stored at 4° C. until required.
Posaconazole (Noxafil 40 mg/mL oral suspension, Merck Sharp & Dohme Limited) was provided as a 40 mg/mL oral suspension (Lot N00801, expiry 04/2019). This suspension was then diluted further in water for infection (WFI) to a working concentration of 0.2 and 1 mg/mL. The suspension was administered orally (PO) at 10 mL/kg for 2 and 10 mg/kg doses respectively, was prepared fresh once and stored at 4° C. until required.
Test article CD101 stock was prepared at 6 mg/mL in 10% DMSO/1% Tween 20 diluent. A clear non particulate solution was obtained following gentle mixing. […] All doses were administered IP at 10 mL/kg. The study doses were kept at 4° C. until required.
Treatment. For this study, treatments were initiated on Day 1 pre infection according to treatment groups outlined in Table 22. A total of 36 mice (6/treatment group) were used in the study.
Endpoints. The primary endpoint for this study was survival within agreed ethical limits (>20% weight loss, severe hypothermia <34° C., inability to reach food or drink, severe hunching). Mice were monitored by daily weight measurements with observations as frequently as clinical condition required.
Mice presenting with severe clinical deterioration were humanely euthanized using an overdose of pentobarbitone administered by IP injection following clinical assessment and the time of death was recorded. Animal carcasses were stored at −20° C. before quantitative assessment of burden.
Ten days post infection all surviving animals were weighed and had their clinical condition assessed prior to being euthanized. Final survival numbers were recorded and analysed as described below and carcasses frozen at −20° C. prior to further processing.
Lung burden. A secondary endpoint for the study was terminal lung tissue burden. Immediately following confirmation of death, carcasses were frozen at −20° C. prior to tissue dissection and processing. The frozen carcasses were thawed at room temperature, the lungs removed and placed into pre-weighed bead-beating tubes containing 2 mL of PBS and subjected to mechanical disruption. […]

[2] = test system: A. fumigatus (ATCC 13073); test: Disseminated infection of neutropenic ICR mice, prophylaxis, survival; format: in vivo, Aspergillus fumigatus; settings: 3 mg/kg IP 1 hr after infection
Experimental: (§3) Inoculum Preparation. A. fumigatus (ATCC 13073) growth was taken from 96 hr potato dextrose agar (PDA) and re-suspended in 0.1% Tween 20. The culture was resuspended in 1 mL cold PBS (>1.0×10^8 CFU/mL, OD620 2.3-2.8). The culture was then diluted in PBS to final cellular densities of 2.0×10^5 CFU/mL. The actual colony counts were determined by plating dilutions on PDA plates to confirm inoculation concentration. The actual inoculum count was 1.85×10^5 CFU/mL.
A. fumigatus (ATCC 13073) disseminated infection (IV). Groups of 6 female ICR mice weighing 22±2 g were used. Animals were immunosuppressed by three intraperitoneal (IP) injections of cyclophosphamide (the first at 6 mg/mouse 3 days before inoculation, the second and third at 2 mg/mouse on Day 1 then Day 4 after inoculation). On Day 0, animals were inoculated (0.1 mL/mouse) by intravenous (IV) injection into the tail vein with A. fumigatus (ATCC 13073), 1.85×10^4 CFU per mouse. CD101 at 5, 10 and 20 mg/kg as prophylaxis was administered subcutaneously (SC) once starting 5, 3 or 1 day before inoculation. […]
A 50 percent or more (≥50%) increase in the survival rate compared to the vehicle control group indicates significant anti-infective activity. The health observations including body weight, hunched posture, ruffled fur, immobility and hypothermia were recorded daily for 14 days. Animals found moribund were to be humanely sacrificed with CO2 asphyxiation in the study.

Candida auris = test: Murine model of disseminated candidiasis (immunosuppressed CD-1 mice), treatment; format: in vivo; settings: 0.3 mg/kg IP, 2 doses; Day 14
Experimental: Female 6-8 week old CD-1 mice were immunosuppressed with cyclophosphamide (200 mg/kg) 3 days prior to infection and 150 mg/kg 1 day post-infection. On the day of infection, mice were inoculated with 3×10^7 C. auris blastospores via the lateral tail vein. Mice were randomized into 5 groups (n=5 for colony forming units (CFU) and n=10 for survival): CD101 20 mg/kg administered by intraperitoneal (IP) injection, fluconazole 20 mg/kg administered per os (PO), amphotericin B 0.3 mg/kg IP, and a vehicle control. Treatments were administered 2 hours post-infection (Day 1) and again on Day 4 of the study for a total of 2 doses. Mice were monitored daily and a survival curve was generated. CFU groups were sacrificed on Day 8 of the study. One kidney was removed from each mouse, homogenized, plated on potato dextrose agar (PDA), and incubated at 35° C. for 2 days to determine CFU. The remaining survival mice were monitored until the end of the study (Day 14).

[3] = test system: A. fumigatus (ATCC 13073); test: Disseminated infection of immune competent DBA/2 mice, prophylaxis, survival; format: in vivo, Aspergillus fumigatus; settings: 3 mg/kg IP 1 hour after infection
Experimental: as §3, with “A.” for “Inoculum Preparation. A.”, “hour” for “hr”, “1.0×10^7” for “2.0×10^5”, “1.30×10^7” for “1.85×10^5”
Groups of 6 immune competent female DBA/2 mice weighing 18±2 g were used. On Day 0, animals were inoculated (0.1 mL/mouse) by intravenous (IV) injection into the tail vein with A. fumigatus (ATCC 13073), 1.30×10^6 CFU per mouse. CD101 at 3, 10 and 30 mg/kg as prophylaxis was administered subcutaneously (SC) once starting 5, 3 or 1 day before inoculation. In addition, CD101 at 3 mg/kg SC and the reference, amphotericin B, at 3 mg/kg by intraperitoneal (IP) injection were administered one hour after infection (See Table 2).
A 50 percent or more (≥50%) increase in the survival rate compared to the vehicle control group indicates significant anti-infective activity. The health observations including body weight, hunched posture, ruffled fur, immobility and hypothermia were recorded daily for 14 days.

CCCCCOc1ccc(-c2ccc(-c3ccc(C(=O)N[C@H]4C[C@@H](O)[C@@H](O)NC(=O)[C@@H]5[C@@H](O)[C@@H](C)CN5C(=O)[C@H]([C@@H](C)O)NC(=O)[C@H]([C@H](O)[C@@H](O)c5ccc(O)cc5)NC(=O)[C@@H]5C[C@@H](O)CN5C(=O)[C@H]([C@@H](C)O)NC4=O)cc3)cc2)cc1 [Anidulafungin, anidulafungin, reference compound] ({pTerphenylCO(4''-OnC5H11)}-[Orn(4R-OH,5R-OH)]T[Hyp][hTyr(3S-OH,4S-OH)]T[Pro(3S-OH,4S-Me)]; lactam 1-C)
MIC (C. glabrata; strain 5592, read-out: MIC): 0.06 µg/mL (≈ 0.0526 µM) | MIC (C. glabrata; strain 10956 (FKS2_HS1_F659V)): 1 µg/mL (≈ 0.877 µM) | MIC (C. glabrata; strain 35315, read-out: MIC): 0.25 µg/mL (≈ 0.219 µM) | MIC (C. parapsilosis; strain 20423.072): 1 µg/mL (≈ 0.877 µM) | MIC (C. parapsilosis; strain 20477.048): 2 µg/mL (≈ 1.75 µM) | MIC (C. parapsilosis; strain 20519.069): 4 µg/mL (≈ 3.51 µM) | MIC (C. albicans; strain 98-17): 0.03 µg/mL (≈ 0.0263 µM) | MIC (C. albicans; strain 98-210): 0.015 µg/mL (≈ 0.0132 µM) | MIC (C. albicans; strain 580): 0.015 µg/mL (≈ 0.0132 µM) | MIC (C. albicans; strain K-1): 0.015 µg/mL (≈ 0.0132 µM)

CC[C@@H]([C@H](C)O)n1ncn(-c2ccc(N3CCN(c4ccc(OC[C@@H]5CO[C@@](Cn6cncn6)(c6ccc(F)cc6F)C5)cc4)CC3)cc2)c1=O [Posaconazole, posaconazole]
survival rate (A. fumigatus AF293; 2 mg/kg PO one day prior to infection, 10 days): no survivors | survival rate (A. fumigatus AF293; 10 mg/kg PO one day prior to infection, vs control): statistically-significant increase in survival rate relative to control | Mean Survival ([1]; 2 mg/kg PO once, Day −1): 77.5 h | Median Survival ([1]; 2 mg/kg PO once, Day −1): 69.0 h | survival time post infection, range ([1]; 2 mg/kg PO once, Day −1): 69 to 114 h | survival vs vehicle (conclusion) ([1]; 2 mg/kg once one day pre-infection): did not show any improvement in survival | Mean Survival ([1]; 10 mg/kg PO once, Day −1): 212 h and 211.5 h | Median Survival ([1]; 10 mg/kg PO once, Day −1): could not be estimated; also recorded: cannot estimate | survival time post infection, range ([1]; 10 mg/kg PO once, Day −1): 69 to 240 h | mice that survived to the end of the study ([1]; 10 mg/kg PO once, Day −1, 6 mice per group, 10 days): 5 mice | mice surviving to the end of the study ([1]; 10 mg/kg once 1 day pre-infection): > 80% | Group Geometric mean ([1]; 2 mg/kg PO Day −1): 1.14 × 10^4 CFU/g | Log10 Group Geometric mean ([1]; 2 mg/kg PO Day −1): 4.06 CFU/g | Log10 reduction from vehicle control ([1]; 2 mg/kg PO Day −1): 0.11 CFU/g | Group Geometric mean ([1]; 10 mg/kg PO Day −1): 2.75 × 10^3 CFU/g | Log10 Group Geometric mean ([1]; 10 mg/kg PO Day −1): 3.44 CFU/g | Log10 reduction from vehicle control ([1]; 10 mg/kg PO Day −1): 0.73 CFU/g

C[C@@H]1[C@H](O)[C@@H](C)/C=C/C=C/C=C/C=C/C=C/C=C/C=C/[C@H](O[C@@H]2O[C@H](C)[C@@H](O)[C@H](N)[C@@H]2O)C[C@@H]2O[C@](O)(C[C@@H](O)C[C@@H](O)[C@H](O)CC[C@@H](O)C[C@@H](O)CC(=O)O[C@H]1C)C[C@H](O)[C@H]2C(=O)O [amphotericin B, reference compound]
14-day survival [2]: significant increase in the 14-day survival | percent survival at the end of the study (Candida auris): 30% | 14-day survival [3]: significant increase in the 14-day survival
